Reference: the NIST ThermoML archive (doi:10.1016/j.fluid.2010.06.019)
± gives the expanded uncertainty stated by the source.

Details: Liquid, Ebulliometric method (Recirculating still)

CCCCCCCCCCCCCCO [1-tetradecanol]
Details	vapor or sublimation pressure [kPa]
479.42 K	8.319 ± 0.013
487.56 K	11.05 ± 0.015
494.5 K	13.89 ± 0.018
500.44 K	16.78 ± 0.021
506.63 K	20.26 ± 0.025
513.01 K	24.53 ± 0.036
513.07 K	24.53 ± 0.036
519.11 K	29.35 ± 0.043
519.18 K	29.35 ± 0.043

CC(C)(C)CO [2,2-dimethyl-1-propanol]
Details	vapor or sublimation pressure [kPa]
345.9 K	20.26 ± 0.031
350 K	24.53 ± 0.035
353.97 K	29.35 ± 0.041
357.84 K	34.76 ± 0.047
361.57 K	40.7 ± 0.055
365.36 K	47.56 ± 0.064
371.31 K	60.19 ± 0.078
377 K	74.65 ± 0.095
383.15 K	93.23 ± 0.11
384.84 K	98.94 ± 0.12

CCCCCCCO [heptan-1-ol]
Details	vapor or sublimation pressure [kPa]
382.3 K	8.324 ± 0.015
388.34 K	11.05 ± 0.017
388.36 K	11.05 ± 0.017
393.65 K	13.89 ± 0.02
393.67 K	13.89 ± 0.02
398 K	16.77 ± 0.023
402.68 K	20.25 ± 0.027
407.45 K	24.53 ± 0.032
407.46 K	24.54 ± 0.032
412.21 K	29.34 ± 0.038
412.22 K	29.35 ± 0.038
416.72 K	34.76 ± 0.044
416.78 K	34.76 ± 0.044
421.2 K	40.69 ± 0.051
425.69 K	47.55 ± 0.049
425.77 K	47.57 ± 0.049
432.77 K	60.19 ± 0.073
439.55 K	74.66 ± 0.089
446.78 K	92.98 ± 0.11
446.82 K	93.13 ± 0.11
446.87 K	93.24 ± 0.11
448.6 K	98.12 ± 0.12
448.63 K	98.2 ± 0.12
450.73 K	104.37 ± 0.12
452.84 K	110.87 ± 0.13
452.97 K	111.28 ± 0.13

CCCCCCO [hexan-1-ol]
Details	vapor or sublimation pressure [kPa]
366.67 K	8.323 ± 0.015
372.64 K	11.06 ± 0.017
377.56 K	13.87 ± 0.02
381.8 K	16.77 ± 0.024
381.81 K	16.77 ± 0.024
386.17 K	20.26 ± 0.028
390.77 K	24.54 ± 0.033
390.78 K	24.54 ± 0.033
395.23 K	29.35 ± 0.039
399.57 K	34.77 ± 0.045
403.73 K	40.7 ± 0.052
407.98 K	47.57 ± 0.061
414.61 K	60.2 ± 0.074
420.99 K	74.69 ± 0.091
427.85 K	93.19 ± 0.11
427.9 K	93.26 ± 0.11
429.52 K	98.12 ± 0.12
429.54 K	98.16 ± 0.12
431.85 K	105.46 ± 0.12
432.25 K	106.75 ± 0.12
432.32 K	106.98 ± 0.13

CCCCCCCCO [octan-1-ol]
Details	vapor or sublimation pressure [kPa]
397.32 K	8.355 ± 0.014
403.71 K	11.1 ± 0.017
409.14 K	13.95 ± 0.02
413.79 K	16.83 ± 0.023
418.61 K	20.33 ± 0.027
418.62 K	20.33 ± 0.027
418.63 K	20.33 ± 0.027
423.7 K	24.62 ± 0.032
428.65 K	29.45 ± 0.037
433.49 K	34.89 ± 0.043
438.12 K	40.83 ± 0.05
438.14 K	40.83 ± 0.05
442.88 K	47.73 ± 0.059
450.34 K	60.37 ± 0.072
457.52 K	74.88 ± 0.088
465.25 K	93.42 ± 0.11
465.29 K	93.54 ± 0.11
